“Also recorded” adds a separate entry of the source. One block for each compound: values may come before it.
Experiments:
human GLUT1 = molecular target: T1, human GLUT1 (Homo sapiens, UniProt P11166); assay: entrance counter-flow transport assay, GLUT1-mediated glucose transport in proteoliposomes; assay type: biochemical; details: for inhibition of GLUT1 glucose transport activity: 20 mM
T1 construct: Full length DNA was subcloned into pFastBac1 (Life Technologies) vector with a N-terminal hexahistidine tag; hexahistidine (thrombin-cleavable) (N, cleaved yes); made in house; host or cells: Sf21 insect cells (baculovirus, pFastBac1)
T1 sequence (P11166 1-492): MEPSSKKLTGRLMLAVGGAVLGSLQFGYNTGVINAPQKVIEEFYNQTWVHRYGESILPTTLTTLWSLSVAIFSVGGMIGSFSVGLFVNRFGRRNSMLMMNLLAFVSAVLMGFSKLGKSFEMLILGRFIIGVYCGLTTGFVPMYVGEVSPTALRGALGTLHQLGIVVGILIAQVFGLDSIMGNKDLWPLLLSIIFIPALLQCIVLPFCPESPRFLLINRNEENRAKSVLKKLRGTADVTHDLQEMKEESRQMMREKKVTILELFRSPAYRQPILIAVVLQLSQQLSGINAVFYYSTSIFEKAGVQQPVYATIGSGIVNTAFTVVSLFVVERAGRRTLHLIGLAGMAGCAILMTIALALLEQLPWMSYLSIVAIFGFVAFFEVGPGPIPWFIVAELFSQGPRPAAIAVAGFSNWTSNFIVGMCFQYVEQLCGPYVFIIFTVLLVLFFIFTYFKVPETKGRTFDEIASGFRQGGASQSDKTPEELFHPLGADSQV
Procedure: Human GLUT1 and GLUT5 were expressed recombinantly in insect cell culture. The purified proteins were reconstituted into proteoliposomes. To measure the inhibition of GLUT1 or GLUT5 transport activity we used entrance counter-flow transport assay. In GLUT1 and GLUT5 proteoliposomes, substrate transport reached steady state after one minute incubation at room temperature.
(§1) Proteoliposomes were generated according to the protocol from[30] with minor modifications. Liposomes were produced from a 95/5% (w/w) mix of soy phosphatidylcholine and cholesterol (Avanti Polar Lipids). Briefly, hexane-washed and vacuum-dried lipids were resuspended to 20 mg/ml in 100 mM KPi (pH 7.5), and then subjected to 11 freeze-and-thaw cycles in liquid nitrogen and room temperature water. The lipid mixture was extruded through a 0.1 μm polycarbonate filter. Prepared liposomes were destabilized with 4 mM Triton X-100 and mixed with purified protein in a 100:1 (w/w) ratio in 100 mM KPi (pH 7.5) 20% (v/v) glycerol, 200 mM (glucose or fructose). Detergent was removed by several additions of SM2 BioBeads (BioRad) and incubated overnight at 4 °C. After filtering out the BioBeads, proteoliposomes were diluted with 100 mM KPi (pH 7.5) 200 mM (glucose or fructose), and then collected by ultracentrifugation, at 200,000 × g and 4 °C, for 1 hour. The proteoliposomes pellet was resuspended in the above buffer so that O.D.600nm was ~30.
To measure hexose transport, we utilized entrance counter-flow assay. Transport was performed in a volume of 100 μL of 100 mM KPi (pH 7.5) buffer containing radioactive ^14C-hexose (4 μM fructose or 5 μM glucose) with inhibitors added before initiation of transport. Radioactive substrate uptake in GLUT1 and GLUT5 (wild-type or mutant) proteoliposomes was constant between 1 and 2 mins. The reaction was started by the addition of 3 μL concentrated proteoliposomes to the above solution and incubated at room temperature; the transport was stopped after one minute by addition of ice-chilled quench buffer [100 mM KPi (pH 5.5) and 100 mM LiCl]. The solution was filtered through a 0.4 μm pore size cellulose nitrate membrane filter (Whatman), and the filter was washed three times with quench buffer. The membrane filter was placed into a vial filled with BioSafe II scintillation liquid (Research Products International Corp.), and radioactivity was quantified with LS 6500 scintillation counter (Beckman). […] The transport assays were unaffected by 5% DMSO. Data is presented as relative activity normalized to radioactivity of no inhibitor added as 100% and empty proteoliposomes as 0%. Kinetic parameters were fitted by nonlinear algorithm plots using Prism (GraphPad Software).

human GLUT5 = molecular target: T2, human GLUT5 (Homo sapiens, UniProt P22732); assay: entrance counter-flow transport assay, GLUT5-mediated fructose transport in proteoliposomes; assay type: biochemical; details: added at 20 mM
T2 construct: Full length DNA was subcloned into pFastBac1 (Life Technologies) vector with a N-terminal hexahistidine tag; hexahistidine (thrombin-cleavable) (N, cleaved yes); made in house; host or cells: Sf21 insect cells (baculovirus, pFastBac1)
T2 sequence (P22732 1-501): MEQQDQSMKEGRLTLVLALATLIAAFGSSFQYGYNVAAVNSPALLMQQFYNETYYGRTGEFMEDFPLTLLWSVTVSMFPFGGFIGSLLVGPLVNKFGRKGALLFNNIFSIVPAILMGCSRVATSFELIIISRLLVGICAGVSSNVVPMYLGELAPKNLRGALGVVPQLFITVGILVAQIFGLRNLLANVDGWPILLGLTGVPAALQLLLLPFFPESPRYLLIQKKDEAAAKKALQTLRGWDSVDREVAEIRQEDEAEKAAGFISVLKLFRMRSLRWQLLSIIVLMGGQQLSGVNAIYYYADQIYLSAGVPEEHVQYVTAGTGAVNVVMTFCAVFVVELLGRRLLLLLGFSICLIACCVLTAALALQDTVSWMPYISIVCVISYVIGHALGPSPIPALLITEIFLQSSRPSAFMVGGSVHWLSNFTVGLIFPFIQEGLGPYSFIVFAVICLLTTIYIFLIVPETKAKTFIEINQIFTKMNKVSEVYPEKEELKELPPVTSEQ
Source text: Human GLUT1 and GLUT5 were expressed recombinantly in insect cell culture. The purified proteins were reconstituted into proteoliposomes. To measure the inhibition of GLUT1 or GLUT5 transport activity we used entrance counter-flow transport assay.
as §1
To measure hexose transport, we utilized entrance counter-flow assay. Transport was performed in a volume of 100 μL of 100 mM KPi (pH 7.5) buffer containing radioactive ^14C-hexose (4 μM fructose or 5 μM glucose) with inhibitors added before initiation of transport. […] The reaction was started by the addition of 3 μL concentrated proteoliposomes to the above solution and incubated at room temperature; the transport was stopped after one minute by addition of ice-chilled quench buffer [100 mM KPi (pH 5.5) and 100 mM LiCl]. The solution was filtered through a 0.4 μm pore size cellulose nitrate membrane filter (Whatman), and the filter was washed three times with quench buffer. The membrane filter was placed into a vial filled with BioSafe II scintillation liquid (Research Products International Corp.), and radioactivity was quantified with LS 6500 scintillation counter (Beckman). […] Data is presented as relative activity normalized to radioactivity of no inhibitor added as 100% and empty proteoliposomes as 0%. Kinetic parameters were fitted by nonlinear algorithm plots using Prism (GraphPad Software).

[1] = set-up: method as in PMID 22133440; details: cited from earlier work
[2] = tested on: glucose/H+ symporter GlcPSe; set-up: method as in PMID 24127585; details: cited from earlier work
human GLUT4 = tested on: human GLUT4; set-up: method as in PMID 1716731; details: cited from earlier work
human GLUT2 = tested on: human GLUT2; set-up: method as in PMID 1716731; details: cited from earlier work
GLUT1 [3] = tested on: GLUT1; set-up: method as in PMID 9286080; details: cited from earlier work
GLUT5 [4] = tested on: GLUT5; set-up: method as in PMID 9166863; details: cited from earlier work
GLUT5 [5] = tested on: GLUT5; set-up: method as in PMID 9166863; details: read-out: GLUT5 Km for fructose; cited from earlier work
GLUT1 [6] = details: read-out: GLUT1 Km for glucose; cited from earlier work
[7] = set-up: method as in PMID 22133440; details: cited from earlier work; remark: listed apart in the source

GLUT1 transport activity (relative glucose transport) (human GLUT1; 20 mM compound): ~ 80%
Compound: OC[C@H]1O[C@H](O[C@H]2[C@H](O)[C@@H](O)C(O)O[C@@H]2CO)[C@H](O)[C@@H](O)[C@@H]1O (mixture of isomers) [maltose]
inhibition of GLUT5 fructose transport activity (human GLUT5): neither maltose nor maltohexaose (6 glucose units) inhibited GLUT5

Compound: O=c1c(O[C@@H]2O[C@H](CO)[C@@H](O)[C@H](O)[C@H]2O)c(-c2ccc(O)cc2)oc2cc(O)cc(O)c12 [astragalin]
solubility in water [1]: insoluble in water
inhibition of GLUT5 fructose transport activity (human GLUT5): neither maltohexaose nor astragalin alone inhibit GLUT5

Compound: C=C1[C@@H](C)[C@H]2[C@H](Cc3ccccc3)NC(=O)[C@]23OC(=O)/C=C/[C@H](O)CCC[C@@H](C)C/C=C/[C@H]3[C@@H]1O [cytochalasin B]
inhibition of bacterial glucose/H+ symporter GlcPSe [2]: inhibit
inhibition of human GLUT4 (human GLUT4): inhibit
inhibition of human GLUT2 (human GLUT2): inhibit
inhibition of GLUT1 activity (GLUT1 [3]): inhibitors
inhibition of GLUT5 (GLUT5 [4]): not GLUT5

Compound: C=C[C@@]1(C)CC(=O)[C@]2(O)[C@@]3(C)[C@@H](O)CCC(C)(C)[C@@H]3[C@H](O)[C@H](OC(C)=O)[C@@]2(C)O1 [forskolin]
inhibition of bacterial glucose/H+ symporter GlcPSe [2]: inhibit
inhibition of human GLUT4 (human GLUT4): inhibit
inhibition of human GLUT2 (human GLUT2): inhibit
inhibition of GLUT1 activity (GLUT1 [3]): inhibitors
inhibition of GLUT5 (GLUT5 [4]): not GLUT5

Compound: O=C(CO)[C@@H](O)[C@H](O)[C@H](O)CO [fructose]
Km (GLUT5 [5]): ~10 mM

Compound: OC[C@H]1OC(O)[C@H](O)[C@@H](O)[C@@H]1O (some centres unmarked) [glucose]
Km (GLUT1 [6]): ~3 mM

Compound: Astragalin-6-glucoside [Ast6G]
inhibition of GLUT1 glucose transport activity (human GLUT1): not inhibited; also recorded: did not inhibit
redox scavenging properties compared to astragalin [7]: increased redox scavenging properties

inhibition of GLUT1 glucose transport activity (human GLUT1): not inhibited
Compound: maltohexaose
inhibition of GLUT5 fructose transport activity (human GLUT5): neither maltose nor maltohexaose (6 glucose units) inhibited GLUT5; also recorded: neither maltohexaose nor astragalin alone inhibit GLUT5

Source: PMC4549712, “Inhibition of human GLUT1 and GLUT5 by plant carbohydrate products; insights into transport specificity” (Scientific Reports, 2015)
